According to PMC8476755 (Frontiers in Chemistry, 2021):
Changes are numbered by the printed parent chain. pIC50: −log10 of the molar value. Where two headings read alike, the source gives them in different places.

Tests used:
Experiment in all cases: [3H]GABA uptake assay, transient expression in tsA201 cells
Assay type in all cases: cell-based
[1] = molecular target: T1, BGT1 E52Y (Homo sapiens, UniProt P48065, E52Y); conditions: for pIC50: BGT1 E52Y, tsA201 cells
T1 construct: expressed in transfected cells; host or cells: tsA201 (transformed HEK293), transient
T1 sequence (P48065 1-614 E52Y): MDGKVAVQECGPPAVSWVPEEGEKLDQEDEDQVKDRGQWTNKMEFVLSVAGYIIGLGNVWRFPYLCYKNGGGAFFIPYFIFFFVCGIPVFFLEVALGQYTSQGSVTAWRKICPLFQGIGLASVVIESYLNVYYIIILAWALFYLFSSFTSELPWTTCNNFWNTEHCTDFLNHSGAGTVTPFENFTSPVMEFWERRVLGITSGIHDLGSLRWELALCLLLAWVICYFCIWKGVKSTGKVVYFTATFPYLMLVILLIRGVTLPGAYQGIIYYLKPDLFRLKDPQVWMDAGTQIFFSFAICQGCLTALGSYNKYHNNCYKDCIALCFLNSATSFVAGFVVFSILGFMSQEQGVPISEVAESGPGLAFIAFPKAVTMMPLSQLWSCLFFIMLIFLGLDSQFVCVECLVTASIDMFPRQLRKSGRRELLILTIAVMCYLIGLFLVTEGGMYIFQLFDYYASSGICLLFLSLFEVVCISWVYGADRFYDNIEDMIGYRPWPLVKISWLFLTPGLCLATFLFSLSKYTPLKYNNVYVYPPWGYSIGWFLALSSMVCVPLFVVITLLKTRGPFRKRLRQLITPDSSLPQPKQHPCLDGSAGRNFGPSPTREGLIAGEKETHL
Experimental: (§1) The residue Q299 in human BGT1 corresponds to leucine in all other GATs (human, rat, mouse), while E52 corresponds to tyrosine in GAT1 (human, rat, mouse) but is conserved among GAT2, GAT3 and BGT1 (human, rat, mouse) (Figure 6A) ([Kickinger et al., 2019]).
(§2) The tsA201 cell line (a transformed HEK293 cell line), the Flp-In CHO cell lines stably expressing human (h) GATs and the HEK293 cell line stably expressing human α1β2γ2 GABAA receptors have been described previously and were cultured accordingly ([Al-Khawaja et al., 2014]; [Falk-Petersen et al., 2020]). The tsA201 cell line used for transient expression of hGATs was transfected with DNA constructs (8 μg per 10 cm plate) using 40 μL PolyFect transfection reagent according to the manufacturer’s protocol (Qiagen).
(§3) Briefly, cells were seeded in white 96-well plates (White Opaque Tissue Culture (TC) plated 96-well Microplate) pre-coated with PDL. Medium was removed on the following day and cells washed with 100 µL/well assay buffer (HBSS supplemented with 20 mM HEPES, 1 mM CaCl2 and 1 mM MgCl2, pH 7.4). […] The cells were washed 3 times with 100 µL/well ice-cold assay buffer, 150 µL/well MicroScint™20 was subsequently added before the plate was shaken for at least 1 h. The plate was counted in a Packard TopCounter microplate scintillation counter (PerkinElmer) for 3 min per well. […] Data presented is the pooled data of at least three independent experiments with three technical replicates if not stated otherwise in figure legends. Concentration–response curves were fitted by non-linear regression to the sigmoidal concentration-response model with GraphPad Prism (version 9.0.0, GraphPad Software, San Diego, CA, United States) as described ([Lie et al., 2020]).

[2] = molecular target: T2, BGT1 E52A + Q299L (Homo sapiens, UniProt P48065, E52A/Q299L); conditions: for pIC50: read-out: IC50
T2 construct: expressed in transfected cells; host or cells: tsA201 (transformed HEK293), transient
T2 sequence (P48065 1-614 E52A/Q299L): T1 sequence (P48065 1-614 E52Y) with Y52A, Q299L
Experimental: as §1, §2, §3

[3] = molecular target: T3, BGT1 E52A (Homo sapiens, UniProt P48065, E52A); conditions: for pIC50: BGT1 E52A; for Increase in activity compared to wildtype: BGT1 E52A vs BGT1 wt
T3 construct: expressed in transfected cells; host or cells: tsA201 (transformed HEK293), transient
T3 sequence (P48065 1-614 E52A): T1 sequence (P48065 1-614 E52Y) with Y52A
Experimental: as §1, §2, §3

[4] = BGT1 E52A + Q299L, tsA201 cells (2: only n = 2)

Compound | Decrease in inhibitory activity compared to wildtype ([1]; BGT1 E52Y vs BGT1 wt) | pIC50 [1] | pIC50 [2, 4] | Decrease in inhibitory activity compared to wildtype ([2]; BGT1 Q299L + E52A vs BGT1 wt) | pIC50 [3] | Increase in activity compared to wildtype [3] | pIC50 ([3]; tsA201 cells) | IC50 ([2]; BGT1 E52A + Q299L, tsA201 cells (2: only n = 2), read-out: pIC50 ± S.E.M. (converted))
N[C@@]12CC[C@H](C(=O)O)[C@@H]1C2 [bicyclo-GABA, (1S,2S,5R)-5-aminobicyclo[3.1.0]hexane-2-carboxylic acid] | 7 times | 4.96 | 4.39 | 27 times | ~7.40 | 38 times | 7.40 | –
CN[C@@]12CC[C@H](C(=O)O)[C@@H]1C2 [compound 2] | – | 4.70 | 4.36 | – | – | 82 times | 6.92 | 31.6 µM
